These results are taken from patent US9271978B2 (Zenith Epigenetics Corp., priority 2012, dated 2016).

Molecules are shown by their SMILES.

Assay [1] addresses T1, Brd4 bromodomain 1 (BRD4(1)) (Homo sapiens, UniProt O60885).
T1 construct: Illustrative results with the first bromodomain of Brd4; made in house; host or cells: E. coli BL21 (DE3)
In words: Inhibition of tetra-acetylated histone H4 binding to Brd4 bromodomain 1 (TR-FRET). Also noted: key: Active: Compounds with an IC50 value less than 30 μM were deemed to be active.; Not Active: Compounds with an IC50 value less than 30 μM were deemed to be active. The conditions noted are these: tetra-acetylated histone H4 peptide, active = IC50 <30 μM. The method, then:
(§1) Proteins were cloned and overexpressed with a N-terminal 6×His tag, then purified by nickel affinity followed by size exclusion chromatography. Briefly, E. coli BL21 (DE3) cells were transformed with a recombinant expression vector encoding N-terminally Nickel affinity tagged bromodomains from Brd2, Brd3, Brd4. Cell cultures were incubated at 37° C. with shaking to the appropriate density and induced overnight with IPTG. The supernatant of lysed cells was loaded onto Ni-IDA column for purification. Eluted protein is pooled, concentrated and further purified by size exclusion chromatography. Fractions representing monomeric protein were pooled, concentrated, aliquoted, and frozen at −80° C. for use in subsequent experiments.
(§2) Binding of tetra-acetylated histone H4 and BET bromodomains was confirmed by a Time Resolved Fluorescence Resonance Energy Transfer (TR-FRET) method. N-terminally His-tagged bromodomains (200 nM) and biotinylated tetra-acetylated histone H4 peptide (25-50 nM, Millipore) were incubated in the presence of Europium Cryptate-labeled streptavidin (Cisbio Cat. #610SAKLB) and XL665-labeled monoclonal anti-His antibody (Cisbio Cat. #61HISXLB) in a white 96 well microtiter plate (Greiner). For inhibition assays, serially diluted test compound was added to these reactions in a 0.2% final concentration of DMSO. Final buffer concentrations were 30 mM HEPES pH 7.4, 30 mM NaCl, 0.3 mM CHAPS, 20 mM phosphate pH 7.0, 320 mM KF, 0.08% BSA). After a 2-h incubation at room temperature, the fluorescence by FRET was measured at 665 and 620 nm by a SynergyH4 plate reader (Biotek). Illustrative results with the first bromodomain of Brd4 and the second bromodomain of Brd2 are shown below. The binding inhibitory activity was shown by a decrease in 665 nm fluorescence relative to 620 nm. IC50 values were determined from a dose response curve.
For orientation: In TR-FRET formats the signal depends on donor and acceptor labels being close together.

In assay [2] the target is T2, second bromodomain of Brd2 (BRD2(2)) (Homo sapiens, UniProt P25440).
T2 construct: made in house; host or cells: E. coli BL21 (DE3)
In words: Inhibition of tetra-acetylated histone H4 binding to Brd2 bromodomain 2 (TR-FRET). Also noted: key: Active: Compounds with an IC50 value less than 30 μM were deemed to be active.; Not Active: Compounds with an IC50 value less than 30 μM were deemed to be active. The settings on record: tetra-acetylated histone H4 peptide, active = IC50 <30 μM. As for the experimental part:
as §1, §2

T2 sequence (P25440 344-453 limits assumed): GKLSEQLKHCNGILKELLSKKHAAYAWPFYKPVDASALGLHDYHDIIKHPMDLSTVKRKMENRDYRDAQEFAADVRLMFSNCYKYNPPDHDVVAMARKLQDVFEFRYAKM

As for `Cc1noc(C)c1-c1cc(NCc2ccccc2)c(=O)n(Cc2ccccc2)c1` [Example 74, 1-Benzyl-3-(benzylamino)-5-(3,5-dimethylisoxazol-4-yl)pyridin-2(1H)-one], the “FRET activity (IC50 <30 μM) BRD4(1)” value in assay [1] is “Active”. Besides, in assay [2], the “FRET activity (IC50 <30 μM) BRD2(2)” value is recorded as “Active”.
For `Cc1noc(C)c1-c1ccc(=O)n(Cc2ccc(OC(F)(F)F)cc2)n1` [Example 76, 6-(3,5-Dimethylisoxazol-4-yl)-2-(4-(trifluoromethoxy)benzyl)pyridazin-3(2H)-one], the “FRET activity (IC50 <30 μM) BRD4(1)” value in assay [1] is on record as “Active”. In addition, the “FRET activity (IC50 <30 μM) BRD2(2)” value in assay [2] is “Active”.
`Cc1noc(C)c1-c1ccc(=O)n(Cc2ccc3ccccc3c2)n1` [Example 77, 6-(3,5-Dimethylisoxazol-4-yl)-2-(naphthalen-2-ylmethyl)pyridazin-3(2H)-one]: the “FRET activity (IC50 <30 μM) BRD4(1)” value in assay [1] is listed as “Active”. Besides, the “FRET activity (IC50 <30 μM) BRD2(2)” value in assay [2] was “Active”.
On to `O=c1ccc(-c2cncs2)cn1Cc1ccccc1` [Example 80, 1-Benzyl-5-(thiazol-5-yl)pyridin-2(1H)-one], for which the “FRET activity (IC50 <30 μM) BRD4(1)” value in assay [1] is “Not Active”. In assay [2], the “FRET activity (IC50 <30 μM) BRD2(2)” value is listed as “Active”.
Regarding `Cc1[nH]cnc1-c1ccc(=O)n(Cc2ccccc2)c1` [Example 81, 1-Benzyl-5-(5-methyl-1H-imidazol-4-yl)pyridin-2(1H)-one], the “FRET activity (IC50 <30 μM) BRD4(1)” value in assay [1] is “Not Active”. Further, the “FRET activity (IC50 <30 μM) BRD2(2)” value in assay [2] is given as “Active”.
For `Cc1noc(C)c1-c1cc(C)c(=O)n(CC2CC2)n1` [Example 85, 2-(Cyclopropylmethyl)-6-(3,5-dimethylisoxazol-4-yl)-4-methylpyridazin-3(2H)-one], in that order: “Active” and “Active”.
Turning to `Cc1n[nH]c(C)c1-c1ccc(=O)n(Cc2ccccc2)n1` [Example 86, 2-Benzyl-6-(3,5-dimethyl-1H-pyrazol-4-yl)pyridazin-3(2H)-one], the “FRET activity (IC50 <30 μM) BRD4(1)” value in assay [1] is reported as “Active”. In addition, the “FRET activity (IC50 <30 μM) BRD2(2)” value in assay [2] is “Active”.
In the case of `Cc1noc(C)c1-c1ccc(=O)n(CC2CCC2)n1` [Example 88, 2-(Cyclobutylmethyl)-6-(3,5-dimethylisoxazol-4-yl)pyridazin-3(2H)-one], in assay [1], the “FRET activity (IC50 <30 μM) BRD4(1)” value is “Active”. In assay [2], the “FRET activity (IC50 <30 μM) BRD2(2)” value is reported as “Active”.
In the case of `Cc1noc(C)c1-c1ccc(=O)n(Cc2c(F)cc(F)cc2F)n1` [Example 92, 6-(3,5-Dimethylisoxazol-4-yl)-2-(2,4,6-trifluorobenzyl)pyridazin-3(2H)-one], in assay [1], the “FRET activity (IC50 <30 μM) BRD4(1)” value is listed as “Active”. Also, in assay [2], the “FRET activity (IC50 <30 μM) BRD2(2)” value is on record as “Active”.
With `Cc1noc(C)c1-c1ccc(=O)n(Cc2cnoc2)n1` [Example 97, 6-(3,5-Dimethylisoxazol-4-yl)-2-(isoxazol-4-ylmethyl)pyridazin-3(2H)-one], the “FRET activity (IC50 <30 μM) BRD4(1)” value in assay [1] is “Active”. The “FRET activity (IC50 <30 μM) BRD2(2)” value in assay [2] was “Not Active”.
Taken in the same sequence, the figures for `COc1ccc(Oc2ccc(=O)n(Cc3ccccc3)n2)cc1OC` [Example 100, 2-Benzyl-6-(3,4-dimethoxyphenoxy)pyridazin-3(2H)-one] were “Not Active” and “Active”.
For the compound `Cc1noc(C)c1-c1ccc(=O)n(C(C)(C)c2ccccc2)c1` [Example 106, 5-(3,5-Dimethylisoxazol-4-yl)-1-(2-phenylpropan-2-yl)pyridin-2(1H)-one], the “FRET activity (IC50 <30 μM) BRD4(1)” value in assay [1] was “Active”. Besides, in assay [2], the “FRET activity (IC50 <30 μM) BRD2(2)” value is recorded as “Active”.
For the compound `Cc1noc(C)c1-c1ccc(=O)n(Cc2ccccc2)c1Cl` [Example 114, 1-Benzyl-6-chloro-5-(3,5-dimethylisoxazol-4-yl)pyridin-2(1H)-one], the “FRET activity (IC50 <30 μM) BRD4(1)” value in assay [1] is “Active”. The “FRET activity (IC50 <30 μM) BRD2(2)” value in assay [2] is on record as “Active”.
Turning to `Cc1noc(C)c1-c1ccc(=O)n(Cc2ccccc2)c1C` [Example 115, 1-Benzyl-5-(3,5-dimethylisoxazol-4-yl)-6-methylpyridin-2(1H)-one], the “FRET activity (IC50 <30 μM) BRD4(1)” value in assay [1] is recorded as “Active”. Moreover, the “FRET activity (IC50 <30 μM) BRD2(2)” value in assay [2] is “Active”.
`COc1cc(-c2ccc(=O)n(Cc3ccc(S(C)(=O)=O)cc3)n2)cc(OC)c1OC` [Example 116, 2-(4-(Methylsulfonyl)benzyl)-6-(3,4,5-trimethoxyphenyl)pyridazin-3(2H)-one]: in assay [1], the “FRET activity (IC50 <30 μM) BRD4(1)” value is given as “Active”. Moreover, the “FRET activity (IC50 <30 μM) BRD2(2)” value in assay [2] is on record as “Active”.
For `Cc1noc(C)c1-c1ccc(=O)n(Cc2ccc(F)cc2Cl)c1` [Example 140, 1-(2-Chloro-4-fluorobenzyl)-5-(3,5-dimethylisoxazol-4-yl)pyridin-2(1H)-one], the “FRET activity (IC50 <30 μM) BRD4(1)” value in assay [1] is “Active”. The “FRET activity (IC50 <30 μM) BRD2(2)” value in assay [2] is “Active”.
Regarding `Cc1noc(C)c1-c1ccc(=O)n(Cc2ccc3[nH]cnc3c2)n1` [Example 143, 2-((1H-Benzo[d]imidazol-5-yl)methyl)-6-(3,5-dimethylisoxazol-4-yl)pyridazin-3(2H)-one], the “FRET activity (IC50 <30 μM) BRD4(1)” value in assay [1] is reported as “Active”. The “FRET activity (IC50 <30 μM) BRD2(2)” value in assay [2] was “Active”.
As for `Cc1noc(C)c1-c1ccc(=O)n(Cc2cc(F)c(F)c(F)c2)n1` [Example 144, 6-(3,5-Dimethylisoxazol-4-yl)-2-(3,4,5-trifluorobenzyl)pyridazin-3(2H)-one], the “FRET activity (IC50 <30 μM) BRD4(1)” value in assay [1] is listed as “Active”. In assay [2], the “FRET activity (IC50 <30 μM) BRD2(2)” value is “Active”.
As for `Cc1noc(C)c1-c1ccc(=O)n(Cc2ccc(S(C)(=O)=O)cc2)c1` [Example 145, 5-(3,5-Dimethylisoxazol-4-yl)-1-(4-(methylsulfonyl)benzyl)pyridin-2(1H)-one], in assay [1], the “FRET activity (IC50 <30 μM) BRD4(1)” value is on record as “Active”. Also, the “FRET activity (IC50 <30 μM) BRD2(2)” value in assay [2] is reported as “Active”.
Turning to `Cc1noc(C)c1-c1ccc(=O)n(S(=O)(=O)c2ccc(Cl)cc2)c1` [Example 150, 1-((4-Chlorophenyl)sulfonyl)-5-(3,5-dimethylisoxazol-4-yl)pyridin-2(1H)-one], in assay [1], the “FRET activity (IC50 <30 μM) BRD4(1)” value is recorded as “Active”. Besides, the “FRET activity (IC50 <30 μM) BRD2(2)” value in assay [2] is reported as “Not Active”.
Taken in the same sequence, the figures for `Cc1noc(C)c1-c1ccc(=O)n(Cc2ncccn2)c1` [Example 163, 5-(3,5-Dimethylisoxazol-4-yl)-1-(pyrimidin-2-ylmethyl)pyridin-2(1H)-one] were “Active” and “Active”.
For `Cc1noc(C)c1-c1nn(Cc2ccccc2)c(=O)c2ccccc12` [Example 170, 2-Benzyl-4-(3,5-dimethylisoxazol-4-yl)-2H-phthalazin-1-one], in that order: “Not Active” and “Active”.
Taken in the same sequence, the figures for `COc1ccc(-c2nn(Cc3ccccc3)c(=O)c3ccccc23)c(OC)c1OC` [Example 177, 2-Benzyl-4-(2,3,4-trimethoxyphenyl)phthalazin-1(2H)-one] were “Active” and “Active”.
